Activity calls are given as the source filed them.
Experiments:
Mu-type opioid receptor = Mu-type opioid receptor (Homo sapiens, UniProt P35372); type: functional, cell-based;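 note: U2OS cells with beta-arrestin recruitment to OPRM1 by beta-gal complementation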
[1] = target: 5-hydroxytryptamine receptor 2A (Mus musculus, UniProt P35363); type: functional, cell-based;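 note: CHO-K1 cells with tagged receptor and beta-arrestin; agonist potency measured as compound-induced activation of the receptor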
HeLa = experiment: HeLa cell cytotoxicity, dose response, cytotoxicity control, ATP luminescence, cherry-pick samples (AID 687004); type: functional, cell-based; conditions: Homo sapiens
HEK293 [2] = experiment: HEK293T cell cytotoxicity, dose response, cytotoxicity control, ATP luminescence, cherry-pick samples (AID 687005); type: functional, cell-based; conditions: Homo sapiens;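 note: cells exposed to compound for 48 hours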
[3] = HEK293 Cytotoxicity Assay Measured in Cell-Based System Using Plate Reader - 7071-01_Inhibitor_Dose_CherryPick_Activity_Set2.; type: functional
[4] = P. falciparum Dd2 growth inhibitors, dose response, SYBR Green, cherry-picked samples (AID 1159567); type: functional, cell-based
[5] = HepG2 cell cytotoxicity, dose response, cytotoxicity control, cherry-picked samples (AID 1159577); type: functional, cell-based
[6] = target: NAD-dependent protein deacylase sirtuin-5, mitochondrial (Homo sapiens, UniProt Q9NXA8); experiment: SIRT5 desuccinylase inhibitors, dose response, biochemical, fluorescence imaging, cherry-pick, set 5 (AID 720591);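 note: desuccinylation of succinyl peptide AMC substrate read as fluorescence after trypsin release; potency of inhibitors that lower fluorescence and may act on trypsin instead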
[7] = A549 cell cytotoxicity, dose response, cytotoxicity control, plate reader, cherry-pick, antagonist series (AID 743412); type: functional, cell-based
[8] = MC4R antagonists, dose response, counter-screen for LGR2 antagonist project, cell-based, plate reader, cherry pick (AID 743444); type: functional;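 note: transfected HEK 293 cells stimulated with alpha-MSH peptide; potency of inhibitors of the alpha-MSH evoked signal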
[9] = HEK293 cell cytotoxicity, dose response, cytotoxicity control, plate reader, cherry-picked samples (AID 743446); type: functional, cell-based
[10] = P. falciparum 3D7-ScDHODH growth inhibitors, dose response, SYBR Green, dry powder samples (AID 1159570); type: functional, cell-based;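 note: parasite growth measured after 72 hours of compound exposure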
[11] = P. falciparum Dd2 growth inhibitors, dose response, SYBR Green, dry powder samples (AID 1159566); type: functional, cell-based;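 note: potency for growth inhibition with lower SYBR green DNA signal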
[12] = P. falciparum ATP4 D1247Y mutant growth inhibitors, dose response, NITD609-resistant line, SYBR Green, dry powder (AID 1159571); type: functional, cell-based;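 note: parasites synchronized at ring stage by sorbitol before testing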
[13] = inhibitors of HIV Env-driven cell fusion, dose response, cherry-pick (AID 652057); type: functional, cell-based
[14] = off-target signal loss in HeLa-CEM21 co-culture – HeLa F-luc CTL cells, cherry-picked, counter-screen for HIV-1 Env fusion inhibitor project, dose response (AID 652040); type: functional, cell-based;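 note: potency for signal decrease marking cytotoxic or nonspecific inhibition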
[15] = ZM109 Env clade C HIV-1 fusion inhibitors, dose response, HeLa effector, CEM target cells, luciferase, cherry-pick (AID 652058); type: functional, cell-based
[16] = inhibitors of clade B AD8 Env fusion, dose response, cell-based, cherry-pick (AID 652062); type: functional;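 note: luciferase signal from cell-cell fusion driven by HIV-1 clade B AD8 Env; potency is for inhibitors of fusion seen as a drop in luminescence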
[17] = inhibitors of firefly luciferase expression or activity, dose response, H4 neuroglioma cells, luminescence (AID 1990); type: functional, cell-based
[18] = Luminescence Cell-Based Dose Response HTS to Identify Inhibitors of 5'UTR Stem-Loop Driven Prion Protein mRNA Translation in H4 Neuroglioblastoma Cells. [Related pubchem assays: 1827 (Project Summary), 1813 (Primary HTS)]; type: functional
[19] = target: T1, Voltage-gated N-type calcium channel alpha-1B subunit/Amyloid beta A4 precursor protein-binding family A member 1 (Homo sapiens, UniProt Q00975+Q02410); type: protein assay
[20] = inhibitors of SNCA 5'UTR-driven reporter translation, confirmation, H4 neuroglioma cells, luminescence (AID 1988); type: functional, cell-based
[21] = target: T1, Voltage-gated N-type calcium channel alpha-1B subunit/Amyloid beta A4 precursor protein-binding family A member 1; type: protein assay; remark: listed apart in the source
[22] = target: T2, Apoptotic protease-activating factor 1 (Homo sapiens, UniProt O14727); type: functional
T2 sequence (O14727 whole entry): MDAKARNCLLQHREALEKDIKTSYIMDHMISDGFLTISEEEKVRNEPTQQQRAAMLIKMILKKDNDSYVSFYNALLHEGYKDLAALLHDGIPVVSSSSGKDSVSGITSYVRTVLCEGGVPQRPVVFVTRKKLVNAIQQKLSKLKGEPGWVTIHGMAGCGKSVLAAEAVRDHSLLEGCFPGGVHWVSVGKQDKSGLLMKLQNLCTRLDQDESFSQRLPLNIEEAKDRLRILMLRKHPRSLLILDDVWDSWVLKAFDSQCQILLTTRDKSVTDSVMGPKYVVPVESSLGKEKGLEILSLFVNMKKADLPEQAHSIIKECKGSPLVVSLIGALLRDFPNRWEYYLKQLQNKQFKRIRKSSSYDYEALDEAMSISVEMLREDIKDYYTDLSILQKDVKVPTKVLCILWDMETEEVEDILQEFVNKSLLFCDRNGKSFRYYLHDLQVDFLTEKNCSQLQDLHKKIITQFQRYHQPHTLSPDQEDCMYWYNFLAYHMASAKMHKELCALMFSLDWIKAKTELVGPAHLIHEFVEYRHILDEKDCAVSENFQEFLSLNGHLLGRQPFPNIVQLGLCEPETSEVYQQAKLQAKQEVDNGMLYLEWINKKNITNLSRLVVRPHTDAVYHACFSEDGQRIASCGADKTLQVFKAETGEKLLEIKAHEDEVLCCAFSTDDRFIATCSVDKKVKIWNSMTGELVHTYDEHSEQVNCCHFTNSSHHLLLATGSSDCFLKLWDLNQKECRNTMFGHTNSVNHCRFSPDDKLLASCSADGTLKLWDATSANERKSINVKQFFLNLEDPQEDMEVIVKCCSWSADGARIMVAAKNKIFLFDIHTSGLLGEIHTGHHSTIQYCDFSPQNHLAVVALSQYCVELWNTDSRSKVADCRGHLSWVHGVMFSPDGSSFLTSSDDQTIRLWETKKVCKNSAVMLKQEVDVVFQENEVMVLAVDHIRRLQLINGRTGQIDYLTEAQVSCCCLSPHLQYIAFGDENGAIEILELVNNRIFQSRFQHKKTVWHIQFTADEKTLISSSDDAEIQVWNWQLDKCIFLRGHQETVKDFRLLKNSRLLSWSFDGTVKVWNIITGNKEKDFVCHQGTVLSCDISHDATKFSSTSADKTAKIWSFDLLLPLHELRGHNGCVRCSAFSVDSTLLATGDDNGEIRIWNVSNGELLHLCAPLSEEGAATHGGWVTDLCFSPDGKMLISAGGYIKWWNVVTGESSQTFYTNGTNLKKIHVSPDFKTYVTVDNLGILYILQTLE

[23] = target: T3, Sentrin-specific protease 8 (Homo sapiens, UniProt Q96LD8); type: functional
T3 sequence (Q96LD8 whole entry): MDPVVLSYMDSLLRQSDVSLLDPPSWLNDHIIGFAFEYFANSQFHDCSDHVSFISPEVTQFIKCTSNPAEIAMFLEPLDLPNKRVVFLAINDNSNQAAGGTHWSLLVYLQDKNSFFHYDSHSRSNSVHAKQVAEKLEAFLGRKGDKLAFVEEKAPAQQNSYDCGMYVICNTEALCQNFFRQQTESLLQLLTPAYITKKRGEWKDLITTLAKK

[24] = target: T3, Sentrin-specific protease 8; type: functional; remark: listed apart in the source
HEK293 [25] = experiment: inhibitors of LMP1-driven NF-kB reporter, dose response, cell-based, HEK293, luciferase, cherry-pick (AID 588343); type: functional; conditions: Homo sapiens
[26] = LGR2 antagonists, dose response, cell-based, HEK293, CRE-luciferase reporter, cherry pick, set 2 (AID 743343); type: functional;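 note: transfected cells were stimulated with diluted bursicon conditioned medium after compound addition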
[27] = Artemis endonuclease inhibitor potency, dose response, biochemical, fluorescence intensity (AID 720701); type: functional;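 note: Artemis endonuclease enzyme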
[28] = THP-1 cell cytotoxicity, dose response, cytotoxicity control for Vif-APOBEC3G degradation inhibitor project, THP-1 cells (AID 1117359); type: functional; conditions: Human immunodeficiency virus 1, THP-1
Paired box protein Pax-8 = Paired box protein Pax-8 (Homo sapiens, UniProt Q06710); experiment: inhibitors of PAX8-driven TPO luciferase reporter, dose response, RMG-I cells, cherry-pick (AID 687027); type: functional, cell-based;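 note: luciferase reporter driven by Pax8 target thyroperoxidase promoter measured by SteadyGlo luminescence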
[29] = NIH:OVCAR-3 ovarian cancer cell cytotoxicity, dose response, PAX8 inhibitor project, plate reader, dry powder samples (AID 743044); type: functional, cell-based
[30] = IGROV1 ovarian cancer cell cytotoxicity, dose response, PAX8 inhibitor project, plate reader, dry powder samples (AID 743043); type: functional, cell-based; conditions: IGROV-1
[31] = cytotoxicity in OVCAR8 ovarian cancer cells, dose response, PAX8 project, cell-based, plate reader, dry powder samples (AID 743197); type: functional; conditions: OVCAR-8

Sequence of Mu-type opioid receptor (P35372 whole entry): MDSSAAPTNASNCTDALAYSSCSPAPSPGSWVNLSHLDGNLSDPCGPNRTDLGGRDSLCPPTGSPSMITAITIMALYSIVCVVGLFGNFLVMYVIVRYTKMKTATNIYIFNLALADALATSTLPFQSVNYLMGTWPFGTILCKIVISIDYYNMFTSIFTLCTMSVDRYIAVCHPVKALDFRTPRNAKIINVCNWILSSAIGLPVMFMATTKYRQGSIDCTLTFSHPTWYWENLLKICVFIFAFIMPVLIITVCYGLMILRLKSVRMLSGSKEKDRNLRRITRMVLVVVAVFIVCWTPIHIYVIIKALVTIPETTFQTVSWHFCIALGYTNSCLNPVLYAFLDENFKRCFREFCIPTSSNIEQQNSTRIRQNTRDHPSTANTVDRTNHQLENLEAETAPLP
Sequence of 5-hydroxytryptamine receptor 2A (P35363 whole entry): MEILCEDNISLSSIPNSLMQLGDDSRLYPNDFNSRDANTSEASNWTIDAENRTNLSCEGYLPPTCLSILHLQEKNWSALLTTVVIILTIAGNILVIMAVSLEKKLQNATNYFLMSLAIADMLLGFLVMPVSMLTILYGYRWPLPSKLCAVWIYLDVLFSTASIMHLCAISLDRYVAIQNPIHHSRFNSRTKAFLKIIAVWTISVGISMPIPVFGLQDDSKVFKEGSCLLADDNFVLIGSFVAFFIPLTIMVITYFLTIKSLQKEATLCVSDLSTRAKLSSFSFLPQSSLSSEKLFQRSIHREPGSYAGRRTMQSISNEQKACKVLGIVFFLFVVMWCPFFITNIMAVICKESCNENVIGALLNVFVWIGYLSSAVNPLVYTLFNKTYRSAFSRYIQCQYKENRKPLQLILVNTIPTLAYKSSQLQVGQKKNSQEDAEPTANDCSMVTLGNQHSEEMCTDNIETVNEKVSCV
Sequence of NAD-dependent protein deacylase sirtuin-5, mitochondrial (Q9NXA8 whole entry): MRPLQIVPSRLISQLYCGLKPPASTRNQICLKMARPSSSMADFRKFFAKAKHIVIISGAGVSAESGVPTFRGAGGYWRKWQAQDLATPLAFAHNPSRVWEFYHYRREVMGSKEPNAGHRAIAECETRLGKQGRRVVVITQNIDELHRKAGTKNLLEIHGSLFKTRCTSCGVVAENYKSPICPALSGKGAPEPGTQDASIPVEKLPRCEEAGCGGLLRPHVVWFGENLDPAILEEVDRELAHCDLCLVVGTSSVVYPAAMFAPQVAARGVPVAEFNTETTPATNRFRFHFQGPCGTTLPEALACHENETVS
T1 sequence (Q00975 whole entry): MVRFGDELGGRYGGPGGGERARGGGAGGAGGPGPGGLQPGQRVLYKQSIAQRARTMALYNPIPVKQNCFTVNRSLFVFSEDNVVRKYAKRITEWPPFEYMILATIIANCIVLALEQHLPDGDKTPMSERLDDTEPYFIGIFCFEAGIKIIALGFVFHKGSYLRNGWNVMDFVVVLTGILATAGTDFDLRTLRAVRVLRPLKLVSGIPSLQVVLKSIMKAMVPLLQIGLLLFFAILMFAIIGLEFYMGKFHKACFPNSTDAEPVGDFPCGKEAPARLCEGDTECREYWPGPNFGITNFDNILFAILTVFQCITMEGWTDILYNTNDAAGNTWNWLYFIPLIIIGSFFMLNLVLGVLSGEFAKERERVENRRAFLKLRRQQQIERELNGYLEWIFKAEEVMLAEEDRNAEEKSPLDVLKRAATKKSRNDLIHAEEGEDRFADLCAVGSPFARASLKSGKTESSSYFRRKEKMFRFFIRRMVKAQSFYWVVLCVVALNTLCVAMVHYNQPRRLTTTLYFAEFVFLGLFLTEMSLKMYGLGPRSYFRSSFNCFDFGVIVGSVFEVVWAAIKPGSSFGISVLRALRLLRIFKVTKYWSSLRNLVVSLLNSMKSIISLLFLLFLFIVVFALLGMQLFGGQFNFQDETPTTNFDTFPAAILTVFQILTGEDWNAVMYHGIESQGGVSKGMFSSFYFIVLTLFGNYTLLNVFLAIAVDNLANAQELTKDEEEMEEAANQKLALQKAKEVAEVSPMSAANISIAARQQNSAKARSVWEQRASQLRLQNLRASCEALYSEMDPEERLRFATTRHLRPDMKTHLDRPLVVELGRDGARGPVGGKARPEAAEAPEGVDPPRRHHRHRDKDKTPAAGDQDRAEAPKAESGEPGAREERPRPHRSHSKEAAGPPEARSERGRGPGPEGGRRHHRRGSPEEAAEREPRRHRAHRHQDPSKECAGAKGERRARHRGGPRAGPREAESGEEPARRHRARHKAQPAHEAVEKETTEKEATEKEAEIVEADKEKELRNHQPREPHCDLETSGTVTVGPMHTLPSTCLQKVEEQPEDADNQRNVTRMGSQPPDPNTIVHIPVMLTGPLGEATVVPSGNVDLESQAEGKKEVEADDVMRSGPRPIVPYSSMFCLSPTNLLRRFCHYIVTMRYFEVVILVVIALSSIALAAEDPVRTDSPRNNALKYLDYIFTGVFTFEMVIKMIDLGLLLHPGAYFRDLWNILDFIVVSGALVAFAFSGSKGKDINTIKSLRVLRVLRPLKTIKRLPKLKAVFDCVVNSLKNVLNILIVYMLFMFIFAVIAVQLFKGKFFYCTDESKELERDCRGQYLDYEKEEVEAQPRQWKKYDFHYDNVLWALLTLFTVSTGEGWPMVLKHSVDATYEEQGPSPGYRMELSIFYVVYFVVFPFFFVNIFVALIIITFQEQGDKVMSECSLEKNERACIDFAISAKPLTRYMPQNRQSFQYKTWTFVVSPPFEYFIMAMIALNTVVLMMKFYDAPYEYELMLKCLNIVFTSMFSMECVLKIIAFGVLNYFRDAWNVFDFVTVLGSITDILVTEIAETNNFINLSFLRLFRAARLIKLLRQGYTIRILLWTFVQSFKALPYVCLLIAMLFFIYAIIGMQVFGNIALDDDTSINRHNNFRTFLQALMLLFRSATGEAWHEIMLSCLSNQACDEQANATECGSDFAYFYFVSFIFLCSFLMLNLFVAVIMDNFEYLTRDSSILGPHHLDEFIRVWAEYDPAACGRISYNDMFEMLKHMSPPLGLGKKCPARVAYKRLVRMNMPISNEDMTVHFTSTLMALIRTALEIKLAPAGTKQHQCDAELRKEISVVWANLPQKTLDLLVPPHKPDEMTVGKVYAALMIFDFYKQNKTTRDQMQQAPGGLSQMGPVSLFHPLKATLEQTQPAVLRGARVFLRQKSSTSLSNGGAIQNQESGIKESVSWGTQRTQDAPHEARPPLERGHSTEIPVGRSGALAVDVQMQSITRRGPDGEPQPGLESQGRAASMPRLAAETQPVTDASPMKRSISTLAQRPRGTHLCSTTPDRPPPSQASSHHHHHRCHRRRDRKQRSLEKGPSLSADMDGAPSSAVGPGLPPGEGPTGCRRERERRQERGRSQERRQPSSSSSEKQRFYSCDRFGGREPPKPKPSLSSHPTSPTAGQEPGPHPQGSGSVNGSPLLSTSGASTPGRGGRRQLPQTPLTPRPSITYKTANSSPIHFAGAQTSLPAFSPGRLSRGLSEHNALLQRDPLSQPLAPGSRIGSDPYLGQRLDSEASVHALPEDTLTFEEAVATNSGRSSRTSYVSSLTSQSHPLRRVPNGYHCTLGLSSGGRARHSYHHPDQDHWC
T1 sequence (Q02410 whole entry): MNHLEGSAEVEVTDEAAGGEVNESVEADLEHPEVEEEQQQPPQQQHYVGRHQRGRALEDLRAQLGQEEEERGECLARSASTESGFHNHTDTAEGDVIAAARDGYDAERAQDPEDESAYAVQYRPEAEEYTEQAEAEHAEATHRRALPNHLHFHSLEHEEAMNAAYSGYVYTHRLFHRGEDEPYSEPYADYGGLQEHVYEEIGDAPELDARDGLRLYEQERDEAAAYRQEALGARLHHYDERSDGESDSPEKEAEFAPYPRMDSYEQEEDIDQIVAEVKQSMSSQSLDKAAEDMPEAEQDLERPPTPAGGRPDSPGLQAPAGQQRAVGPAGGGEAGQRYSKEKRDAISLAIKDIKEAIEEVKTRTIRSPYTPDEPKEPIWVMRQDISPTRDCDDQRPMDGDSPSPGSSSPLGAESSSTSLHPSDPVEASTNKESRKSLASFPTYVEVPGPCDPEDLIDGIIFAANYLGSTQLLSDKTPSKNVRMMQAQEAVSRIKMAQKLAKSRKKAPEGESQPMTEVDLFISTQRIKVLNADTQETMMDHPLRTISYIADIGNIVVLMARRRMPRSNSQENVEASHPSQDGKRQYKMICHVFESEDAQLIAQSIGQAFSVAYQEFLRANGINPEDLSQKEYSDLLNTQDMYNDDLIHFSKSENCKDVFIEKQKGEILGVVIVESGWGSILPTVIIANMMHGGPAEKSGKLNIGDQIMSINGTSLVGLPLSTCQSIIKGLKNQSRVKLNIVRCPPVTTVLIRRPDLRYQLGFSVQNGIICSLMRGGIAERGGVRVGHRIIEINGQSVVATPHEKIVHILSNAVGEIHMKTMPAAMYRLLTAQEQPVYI
Sequence of Paired box protein Pax-8 (Q06710 whole entry): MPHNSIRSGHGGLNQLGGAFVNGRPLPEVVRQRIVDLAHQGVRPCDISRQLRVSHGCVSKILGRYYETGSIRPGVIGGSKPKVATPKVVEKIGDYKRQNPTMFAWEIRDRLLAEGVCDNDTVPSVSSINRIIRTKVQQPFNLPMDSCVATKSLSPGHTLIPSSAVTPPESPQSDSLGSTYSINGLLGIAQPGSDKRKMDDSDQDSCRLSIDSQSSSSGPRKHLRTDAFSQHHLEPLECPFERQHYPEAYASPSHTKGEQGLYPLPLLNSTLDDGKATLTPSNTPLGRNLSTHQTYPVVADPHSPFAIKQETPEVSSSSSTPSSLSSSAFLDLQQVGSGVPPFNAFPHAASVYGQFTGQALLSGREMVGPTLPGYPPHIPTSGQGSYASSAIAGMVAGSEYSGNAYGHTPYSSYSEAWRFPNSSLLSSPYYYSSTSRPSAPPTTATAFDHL

SMILES: CCn1c(N2CCN(S(=O)(=O)c3ccc(OC)cc3)CC2)nc2ccccc21
- EC50 (Mu-type opioid receptor): 92.5 µM (inactive)
- EC50 [1]: 30 µM (inactive)

SMILES: C[C@@H]1CN([C@H](C)CO)C(=O)c2cc(NC(=O)Nc3cccc4ccccc34)ccc2O[C@@H]1CN(C)C(=O)Nc1ccccc1
- AC50 (HeLa): 22.8 µM (active)

SMILES: COc1ccc(CN2CCN(C(=O)c3ccco3)CC2)cc1OCc1ccccc1
- EC50 (Mu-type opioid receptor): 92.5 µM (inactive)
- EC50 [1]: 1.48 µM (active)

SMILES: CC(C)NC(=O)Nc1ccc2c(c1)C(=O)N([C@@H](C)CO)C[C@@H](C)[C@@H](CN(C)S(=O)(=O)c1ccc(Cl)cc1)OCCCC[C@@H](C)O2
- AC50 (HEK293 [2]): 20.6 µM (active)
- AC50 [3]: 20.6 µM (active)

SMILES: COc1cccc(CN2C[C@@H]3N[C@H](C2)[C@@H]3c2ccc(-c3cccc(C#N)c3)cc2)c1
- AC50 [4]: 3.66 µM (active)
- AC50 [5]: 9.19 µM (active)

SMILES: C[C@@H]1CN([C@H](C)CO)C(=O)c2cc(C#CCc3ccccc3)cnc2O[C@H]1CN(C)CC1CCCC1
- AC50 [4]: 1.91 µM (active)
- AC50 [5]: 13.5 µM (active)

SMILES: O=C(NCCO)Nc1ccc(Cl)cc1
- AC50 [6]: > 30 µM (inactive)

SMILES: COc1ccc2ccccc2c1CN1CCN(C(=O)c2ccco2)CC1
- EC50 (Mu-type opioid receptor): 92.5 µM (inactive)
- EC50 [1]: 1.77 µM (active)

SMILES: Cc1c(C(=O)OCC(O)=C(C#N)c2nc3ccccc3[nH]2)oc2ccc(Br)cc12
- AC50 [6]: > 30 µM (inactive)

SMILES: Cc1ccc(S(=O)(=O)Nc2ccc3c(c2)CC(=O)N([C@H](C)CO)C[C@H](C)[C@H](CN(C)Cc2ccc(Cl)c(Cl)c2)O3)cc1
- AC50 [7]: 24.7 µM (active)
- AC50 [8]: 32.4 µM (active)
- AC50 [9]: > 47 µM (inactive)

SMILES: CN(C)C(=O)c1cccc(-c2cccc(-c3nc(C(=O)NC4CCCCC4)cc4c3[C@H](CCO)N([S@@+]([O-])C(C)(C)C)C4)c2)c1
- AC50 [10]: 1.32 µM (active)
- AC50 [4]: 2.05 µM (active)
- AC50 [11]: 0.736 µM (active)
- AC50 [12]: 0.933 µM (active)

SMILES: Cc1ccc2c(c1)c1c3n2CCN(CCC#N)C3CCC1 (stereo not drawn)
- AC50 [13]: 12.9 µM (active)
- AC50 [14]: 1.89 µM (active)

SMILES: O=C(NC12CC3CC(CC(C3)C1)C2)OCCNC1CCCCC1
- AC50 [13]: 2.91 µM (active)
- AC50 [15]: 6.43 µM (active)
- AC50 [14]: 4.34 µM (active)
- AC50 [16]: 7.98 µM (active)

SMILES: CCOC(=O)c1nn(-c2ccc(C)c(C)c2)c(=O)c2c(N)scc12
- EC50 [17]: 13.8 µM (active)
- EC50 [18]: > 120 µM (not active)
- IC50 [19]: 9.97 µM (active)
- EC50 [20]: > 120 µM (not active)
- IC50 [21]: > 50 µM (inactive)
- IC50 [22]: 42.2 µM (active)
- IC50 [23]: 5.03 µM (active)
- IC50 [24]: 5.63 µM (active)

SMILES: Cc1ccc(C(=O)Nc2ccc3ncccc3c2)cc1
- AC50 (HEK293 [25]): 1.6 µM (active)
- AC50 (HeLa): > 52 µM (inactive)
- AC50 (HEK293 [2]): 20.5 µM (active)
- AC50 [7]: > 52 µM (inactive)
- AC50 [26]: 1.96 µM (active)
- AC50 [8]: 3.88 µM (active)
- AC50 [3]: 20.5 µM (active)
- AC50 [9]: > 52 µM (inactive)

SMILES: O=C(Nc1cccc(C(F)(F)F)c1)c1ccc2nc(-c3ccco3)c(-c3ccco3)nc2c1
- IC50 [22]: 43.9 µM (active)
- IC50 [27]: > 20 µM (inactive)

SMILES: CN(C)N1C(N)=C(C#N)C(c2cccnc2)C2=C1CCCC2=O (stereo not drawn)
- CC50 [28]: > 40 µM (active)

SMILES: O=C(N/N=C/c1cccs1)c1cc(-c2ccc3ccccc3c2)[nH]n1
- IC50 [27]: > 20 µM (inactive)

SMILES: C/C=C/c1ccc([C@@H]2[C@H]3CN(C(=O)Nc4ccc(OC)cc4)CCCCN3[C@H]2CO)cc1
- AC50 (HeLa): > 52 µM (inactive)
- AC50 (HEK293 [2]): 24.4 µM (active)
- AC50 [3]: 24.4 µM (active)

SMILES: C[C@H]1CCCCO[C@@H](CN(C)Cc2ccc(C(F)(F)F)cc2)[C@@H](C)CN([C@@H](C)CO)C(=O)c2cc(NC(=O)Nc3ccc4c(c3)OCO4)ccc2O1
- AC50 (Paired box protein Pax-8): 7.11 µM (active)
- AC50 [29]: 21.1 µM (active)
- AC50 [30]: 49.6 µM (active)
- AC50 [31]: 51.5 µM (active)

SMILES: CCCCC(=O)Nc1ccc(N2CCCC2)cc1
- IC50 [27]: > 20 µM (inactive)

SMILES: O=C(C1CC1)N1CC(=O)N2[C@H](CO)[C@H](c3ccc(C#CCc4ccccc4)cc3)[C@H]2C1
- AC50 [4]: 9.66 µM (active)
- AC50 [5]: > 39 µM (inactive)

— ChEMBL document CHEMBL1201862, “PubChem BioAssay data set” (2004)
